A short description of this data set: Human HepG2 cell viability assay in 384 well format. The class given is toxicity, cell-based. More on the design: dose 125 nL, time 70.5 hour; concentration not given beside the values. Particulars: HepG2 cells, read-out: Inhibition.
With `CNc1nc2c(s1)C(=O)CN(C(=O)NCc1ccccc1)C2`, the cytotoxicity at 70.5 h was -9.93%.

As to `c1cnc(NCc2n[nH]c3c2CCN(Cc2ccncc2)C3)nc1`, the cytotoxicity at 70.5 h is -6.35%.

Turning to `Cn1cc(S(=O)(=O)Nc2ccc3[nH]c(C4CCC4)nc3c2)cn1`, the cytotoxicity at 70.5 h came out at 0.665%.

For `Cc1c(Cl)c(C(=O)NCc2ccc(F)cc2)nn1C`, the cytotoxicity at 70.5 h was -5.73%.

For the molecule `CC(C)N1CCC(c2n[nH]cc2S(C)(=O)=O)CC1`, the cytotoxicity at 70.5 h is -10.2%.

Regarding `Cc1ccc(N2C[C@H](C)[C@]3(CCN(c4cccnc4)C3=O)C2)nn1`, the cytotoxicity at 70.5 h was -3.28%.

As to `CCOCc1nnc(NCc2ccsc2)o1`, the cytotoxicity at 70.5 h is -3.37%.

In the case of `CCc1cnc2c(c1NCc1ccncc1)c(=O)n(C)c(=O)n2C`, the cytotoxicity at 70.5 h was -8.17%.

Take `CC(=O)N1CCC(C(=O)N2CCCC(Cc3ccccn3)C2)CC1` (centres undefined): the cytotoxicity at 70.5 h was -8.43%.

As for `CC1CN(C)CCN1Cc1cccc(C(=O)NCc2ccco2)c1` (centres undefined), the cytotoxicity at 70.5 h came to 27.4%.

Regarding `CN(C)c1nccc(C2CCN(c3ncccn3)CC2)n1`, the cytotoxicity at 70.5 h is -0.97%.

`NS(=O)(=O)CCNC(=O)CCc1cc(Br)cs1`: the cytotoxicity at 70.5 h stood at 1.86%.

Take `Cc1ccc(C2CSCCN2CCS(C)(=O)=O)cc1` (centres undefined): the cytotoxicity at 70.5 h was -12.2%.

With `O=C(NCc1cccnc1)[C@@H]1CC[C@@H]2[C@@H](CCN2c2ncccn2)O1`, the cytotoxicity at 70.5 h was determined as 15.1%.

`CN(C)c1cc(C(=O)N2CCCC2)ccn1`: the cytotoxicity at 70.5 h was -10%.

As to `Cc1ccc(C(=O)N2C[C@@H](OCC3CCOCC3)[C@H]3OCCC[C@H]32)o1`, the cytotoxicity at 70.5 h is -27.2%.

`Cc1nc(CN2CC3(CCN(c4nccs4)C3)CC2=O)cs1` (centres undefined): the cytotoxicity at 70.5 h was -1.92%.

As to `CCOc1cccc(CNC(C)c2ccc(-n3ccnc3)cc2)c1O` (centres undefined), the cytotoxicity at 70.5 h amounted to 2.29%.

In the case of `COc1cccc(CN2C[C@@H]3COC[C@]3(COc3cccnc3)C2)c1`, the cytotoxicity at 70.5 h worked out at 3.66%.

For `Cc1cnn(C2CCCN(C(=O)c3sccc3C#N)C2)c1` (centres undefined), the cytotoxicity at 70.5 h is 28.7%.

As for `O=C(O)CC[C@@H]1CN(c2ncccc2F)CC[C@@H]1N1CCOCC1`, the cytotoxicity at 70.5 h was -8.92%.

On to `CCN1CCC2(COCc3c(C)nc(N(C)C)nc32)C1` (centres undefined), for which the cytotoxicity at 70.5 h is -8.16%.

On to `Cn1c(C2CC2)nc2c1CCN(CCOc1ccccc1C#N)C2`, for which the cytotoxicity at 70.5 h was 23.9%.

Regarding `CCc1nnc(NC(=O)N(CCOC)Cc2ccc(C)o2)s1`, the cytotoxicity at 70.5 h turned out to be 14.4%.

On to `Cc1cnn(Cc2cc(F)ccc2F)c1NC(=O)CNC(=O)C1CC1`, for which the cytotoxicity at 70.5 h is 1.15%.

On to `COCCNC(=O)NCc1cc(-c2cccs2)n(C2CCCC2)n1`, for which the cytotoxicity at 70.5 h was -8.68%.

As for `COc1ccc(F)c(F)c1C(=O)N1C[C@@H](CN(C)CCO)[C@@H](CO)C1`, the cytotoxicity at 70.5 h was 17%.

Take `CN(Cc1ccoc1)C(=O)C1CC(=O)N(Cc2ccncc2)C1` (centres undefined): the cytotoxicity at 70.5 h is -8.62%.

`c1coc(CNCC2Cn3nncc3CO2)c1` (centres undefined): the cytotoxicity at 70.5 h is -8.73%.

On to `Cc1nc[nH]c1-c1nccn1-c1ccc(C(N)=O)c(N2CCCC2)c1`, for which the cytotoxicity at 70.5 h is 20.6%.

With `COCCN1C(=O)C[C@H]2[C@H]1CCN2Cc1cccc(C#N)c1`, the cytotoxicity at 70.5 h is -19.1%.

With `Cc1cccc(CNC[C@H]2Cn3ccnc3CO2)n1`, the cytotoxicity at 70.5 h was -1.57%.

Turning to `COC(C)(C)CC(C)NC(=O)Nc1ccccn1` (centres undefined), the cytotoxicity at 70.5 h is -2.34%.

Take `COC(=O)CCNC(=O)c1c[nH]cc1-c1ccccc1OC`: the cytotoxicity at 70.5 h is -3.42%.

Turning to `CN(Cc1ncnn1C)C(=O)CCn1ccc2ccccc21`, the cytotoxicity at 70.5 h is -7.59%.

For the molecule `CCN(CC(=O)N(C)C)S(=O)(=O)c1cnc2c(c1)c(C)nn2C`, the cytotoxicity at 70.5 h is -17.2%.

On to `Cc1nc2n(n1)CC(NCc1cnn(-c3ccccc3)n1)CC2` (centres undefined), for which the cytotoxicity at 70.5 h is -9.59%.

As to `CCOC(=O)CCC(=O)N1CC(c2nc(Cc3ccccc3)no2)C1`, the cytotoxicity at 70.5 h was -6.9%.

In the case of `CC(NC(=O)Nc1nccs1)C(=O)NC1CCCC1` (centres undefined), the cytotoxicity at 70.5 h came out at 0.896%.

In the case of `CSCCC(=O)N1CCc2c(ncnc2N2CCOCC2)C1`, the cytotoxicity at 70.5 h was -2.83%.

Regarding `CCO[C@@H]1CC[C@H]2[C@H]1OCCN2S(=O)(=O)c1cn(C)cn1`, the cytotoxicity at 70.5 h is -1.5%.

Consider `CCC(O)CN1CCN(C(=O)Cc2cc(Cl)ccc2OC)CC1` (centres undefined), for which the cytotoxicity at 70.5 h was -8.81%.

In the case of `Clc1ccc(OCCN2CCN(CCn3cncn3)CC2)cc1`, the cytotoxicity at 70.5 h was 13.2%.

Turning to `CNC(=O)c1cnc2n1CCN(C(=O)Cc1ccccn1)C2`, the cytotoxicity at 70.5 h was -13.8%.

As for `CN1CC(=O)N(C2CCNCC2)Cc2c(NC3CCC3)ncnc21`, the cytotoxicity at 70.5 h was -7.06%.

Turning to `NC(=O)C1CCN(C(=O)c2cccn2Cc2cccs2)C1` (centres undefined), the cytotoxicity at 70.5 h is -0.693%.

Turning to `CN(C)CCNCCC(Cc1ccccc1)C1CCOC(C)(C)C1` (centres undefined), the cytotoxicity at 70.5 h was -8.7%.

In the case of `CN(CC(C)(C)C)c1ccc(C(=O)NCCCc2ccccn2)cn1`, the cytotoxicity at 70.5 h was -8.74%.

As to `c1cc(CNc2ncc(-c3cnccn3)c(C3CC3)n2)ccn1`, the cytotoxicity at 70.5 h is -2.59%.

For `CC(C(=O)NCC(C)(C)c1ccc2c(c1)OCO2)n1ccnc1` (centres undefined), the cytotoxicity at 70.5 h was -1.09%.

Consider `Cc1cc2ccncc2n1CC1(O)CCN(C(=O)c2cccnc2)CC1`, for which the cytotoxicity at 70.5 h was -0.954%.

As for `Cn1cccc1CN1CCC2(CC1)CN(c1ncccn1)CCO2`, the cytotoxicity at 70.5 h stood at 1.85%.

`F[C@@H]1CN(C2CCC2)C[C@@H]1OCc1nc2ncccc2[nH]1`: the cytotoxicity at 70.5 h stood at 15.4%.

As to `O=C(NCc1nncn1C1CC1)Nc1ccc(OC2CCC2)c(F)c1`, the cytotoxicity at 70.5 h was -1.51%.

For `CCCn1cc(CN2CCOCC2c2[nH]ncc2C)cn1` (centres undefined), the cytotoxicity at 70.5 h was -2.99%.

As to `CN(C)c1ncccc1CNS(=O)(=O)c1ccc(C(N)=O)cc1`, the cytotoxicity at 70.5 h was -7.08%.

Turning to `c1ccc(-c2nc(CCNC3CCOC4(CCOCC4)C3)no2)cc1` (centres undefined), the cytotoxicity at 70.5 h is -8.69%.

As for `CN1C[C@H](c2ccccc2)[C@H]2CN(C(=O)Cc3ccc(O)cc3)CC[C@H]21`, the cytotoxicity at 70.5 h worked out at 22.7%.

Turning to `CCOC(=O)c1n[nH]cc1CN1CCOC(Cc2ccccc2)C1` (centres undefined), the cytotoxicity at 70.5 h is 0.539%.

For `CCC(CNC(=O)c1nc(=O)[nH][nH]1)Oc1ccccc1C(F)(F)F` (centres undefined), the cytotoxicity at 70.5 h is 1.22%.

For `O=C(NCC(=O)N1CCCc2ccccc21)c1c(O)cc(F)cc1F`, the cytotoxicity at 70.5 h was 0.334%.

`N#Cc1ccc(CNCC(C(=O)N2CCOCC2)c2ccccc2)cc1` (centres undefined): the cytotoxicity at 70.5 h was -3%.

`NC(=O)[C@@H]1Cc2ccccc2CN1S(=O)(=O)N1CCCCCC1`: the cytotoxicity at 70.5 h is -4.6%.

Regarding `O=C(O)c1ccccc1-c1ccc(CN2CCC(CO)C2)cn1` (centres undefined), the cytotoxicity at 70.5 h worked out at 15.8%.

In the case of `CC(=O)NC[C@]1(O)CCN(C(=O)c2ccc(C)c(F)c2)C[C@H]1O`, the cytotoxicity at 70.5 h was -2.74%.

Consider `COc1ccccc1-c1c[nH]c(C2CCCN2)n1` (centres undefined), for which the cytotoxicity at 70.5 h was -7.74%.

On to `Cn1cccc1C(=O)N1C[C@@H](OCc2ccncc2)[C@@H]2OCCC[C@@H]21`, for which the cytotoxicity at 70.5 h is -1.09%.

Turning to `Cc1ccc2cc(C(=O)N3CCC(O)(C(F)(F)F)CC3)ccc2n1`, the cytotoxicity at 70.5 h stood at 0.437%.

Take `COCCN1CCC(CNC(=O)C2(c3ccccc3)CCOCC2)C1` (centres undefined): the cytotoxicity at 70.5 h is -4.78%.

On to `CCCn1cnc(S(=O)(=O)Nc2cccnc2-n2cccn2)c1`, for which the cytotoxicity at 70.5 h was 19.8%.

As to `COCCNC(=O)Cn1cc(NC(=O)c2ccc(C(C)(C)C)cc2)cn1`, the cytotoxicity at 70.5 h was 33.3%.

Turning to `C=C(C)Cn1ccc2cc(OC)c(F)cc2c1=O`, the cytotoxicity at 70.5 h was -2.43%.

Consider `Cc1ccc(F)c(-n2nnc(C(=O)O)c2-c2ccncc2)c1`, for which the cytotoxicity at 70.5 h was -5.82%.

Take `CC(NC(=O)c1cccs1)C(=O)NCc1cccnc1N1CCCCC1` (centres undefined): the cytotoxicity at 70.5 h was -16.1%.

On to `O=C(N[C@@H]1CCC[C@@H](N2CCOCC2)[C@@H]1O)c1ncccn1`, for which the cytotoxicity at 70.5 h is 6.75%.

For `CC(=O)Nc1nc(C(=O)N2CCCC(n3ccnc3C)C2)cs1` (centres undefined), the cytotoxicity at 70.5 h is -14.1%.

As for `O=C(c1ccco1)N1CCc2ncnc(NCc3ccccn3)c2CC1`, the cytotoxicity at 70.5 h is -8.48%.

Take `CCOC[C@]12COC[C@H]1CN(Cc1cccc(OC)c1)C2`: the cytotoxicity at 70.5 h is -5.95%.

In the case of `Cc1nc(COC[C@H]2CCC[C@@]23CN(C(C)C)CCO3)cs1`, the cytotoxicity at 70.5 h was -6.88%.

Take `COc1cc(OC)cc(C(=O)Nc2ncnc3c2CCC3)c1`: the cytotoxicity at 70.5 h was 59%.

As to `CC(NC(=O)c1ccoc1)c1ccc2c(c1)CCC(=O)N2` (centres undefined), the cytotoxicity at 70.5 h was -0.0886%.

Consider `CC(C)N1CCCC2(CCN(C(=O)CCCn3ccnc3)C2)C1=O` (centres undefined), for which the cytotoxicity at 70.5 h is -12.1%.

Regarding `CCc1nc(N)nc(NCCC(=O)N2CCCC2)c1C`, the cytotoxicity at 70.5 h came to 23.5%.

Take `Cc1noc(C)c1C[S+]([O-])Cc1cn2cccc(C)c2n1` (centres undefined): the cytotoxicity at 70.5 h is -4.48%.

With `COc1ccc(C(=O)N2CC(=O)N(C3CCC3)CC(O)C2)cc1OC` (centres undefined), the cytotoxicity at 70.5 h was -5.23%.

Consider `COCCN1CCOCC12CCN(c1cnccn1)CC2`, for which the cytotoxicity at 70.5 h was -6.94%.

As to `c1ccc(CN2CCOC3(COCCN(c4ncccn4)C3)C2)nc1` (centres undefined), the cytotoxicity at 70.5 h is -12.3%.

Take `CN(C)C1Cc2ccccc2N(S(=O)(=O)c2cccc(C#N)c2)C1` (centres undefined): the cytotoxicity at 70.5 h is -4.2%.

As for `Cc1nc2n(n1)CC(NCCC(=O)Nc1cc(C)on1)CC2` (centres undefined), the cytotoxicity at 70.5 h is -6.62%.

With `c1ccc(COC[C@@H]2CCC[C@]23CN(Cc2nccs2)CCO3)nc1`, the cytotoxicity at 70.5 h came out at 5.78%.

Turning to `Cc1nc2c(c(N(C)C)n1)CCN(C(=O)c1ccc(N)nc1)C2`, the cytotoxicity at 70.5 h was -7.14%.

With `CN(C)CCCn1cnc2cc(NC(=O)c3n[nH]c4c3CCC4)ccc21`, the cytotoxicity at 70.5 h was -4.15%.

As for `Cn1ccnc1CN1CCN(CC(O)c2cc(F)ccc2F)CC1` (centres undefined), the cytotoxicity at 70.5 h was -10.1%.

Consider `CCS(=O)(=O)N1C[C@H]2CC[C@@]3(N=C(C)N(CC(C)C)C3=O)[C@H]2C1`, for which the cytotoxicity at 70.5 h was -10.8%.

On to `O=C(NCc1cccnc1N1CCc2ccccc2C1)c1cnc[nH]1`, for which the cytotoxicity at 70.5 h is -10.2%.

On to `O=C(NC[C@H]1OC[C@@H](NC2COC2)[C@@H]1O)C1CCCC1`, for which the cytotoxicity at 70.5 h is -8.61%.

Take `COCCC(=O)NCC(O)c1c(F)cccc1F` (centres undefined): the cytotoxicity at 70.5 h is -7.9%.

Consider `CCC1CN(CC(=O)NCCC#N)CCO1` (centres undefined), for which the cytotoxicity at 70.5 h is 2.5%.

With `Cc1cnccc1NCCNC1CCSCC1`, the cytotoxicity at 70.5 h is -17.3%.

Values taken from ChEMBL document CHEMBL3507680, “University of Dundee, Gates Library screen for HepG2 cell viability”.
